Test results: patent US9939427B2, “Method for evaluating the scent performance of perfumes or perfume mixtures” (Symrise AG, priority 2013, dated 2018)

System: HEK293 cells transfected with all cofactors and pCI plasmids without ORs
Experiment: Ca-imaging of control HEK293 cells without OR
Format: cell-based
In short: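 HEK293 cells transfected by calcium phosphate with empty pCI plus Gα15, RTP1, Myr-Ric8A, HSC70 and mCherry, incubated 48–60 h, then loaded with 3 µM Fura-2/AM for 30–45 min. Odorants in Ringer's applied as mixtures at 200 µM each or singly at 100–200 µM, with 0.25 mM ATP at the end. Ca2+ followed as 340/380 nm ratio every 4 s; responses as ΔF/F0, judged by timing, amplitude above twice baseline noise and curve shape.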

## O=C1CCCCCCCCCCCCCCO1 [Pentadecanolide, ω-cyclopentadecanolide]
200 μM (FIG. 13)
  Response of control cells, in words: did not respond
Odorant 200 μM, three times of measuring (Table 4, FIG. 5)
  Number of cell responses, Control: 2
